Source: paper PMC5400099, “5-Hydroxyethyl-3-tetradecanoyltetramic acid represents a novel treatment for intravascular catheter infections due to Staphylococcus aureus” (Journal of Antimicrobial Chemotherapy, 2016)
Values joined by “and” are separate entries in the source; they are usually repeats but may differ in a detail not shown here. Equal entries are not always repeated.

Columns and labels:
S. aureus strain USA300 = experiment: MIC by broth microdilution (CLSI), strain USA300; assay type: cell-based; conditions: Staphylococcus aureus; USA300 (MRSA), Mueller–Hinton broth
Description: (§1) Community-acquired MRSA (CA-MRSA) strain USA300, its isogenic agr mutant,[17] the hospital-acquired MRSA (HA-MRSA) strain BH1CC,[18] the HA-MSSA strain BH48[19] and the MSSA strain SH1000[20] were cultured in Mueller–Hinton broth for susceptibility testing or in RPMI-1640 (Gibco) for biofilm formation. For the rat jugular vein catheter infection model, the S. aureus strain USA300 (LAC) lux[21] was used.
(§2) 5HE-C14-TMA and C14-TOA were synthesized as described previously[9] and C14-TTA as described in the Supplementary data available at JAC Online. Stock solutions of the compounds in DMSO at 10–50 mM were further diluted into tissue culture media or sodium chloride for the in vivo experiments. A DMSO solvent control was used in all in vitro experiments. The following antibiotics were used: vancomycin (Vancocin; Flynn Pharma Ltd., Republic of Ireland), daptomycin (Cubicin; Novartis, UK), gentamicin (Hospira, UK) and tigecycline (Tygacil; Pfizer Inc.). MICs were determined by broth microdilution in Mueller–Hinton broth, as recommended by the CLSI.

S. aureus strain BH1CC = experiment: MIC by broth microdilution (CLSI), strain BH1CC; assay type: cell-based; conditions: Staphylococcus aureus; BH1CC (MRSA), Mueller–Hinton broth
Description: as §1, §2

S. aureus strain BH48 = experiment: MIC by broth microdilution (CLSI), strain BH48; assay type: cell-based; conditions: Staphylococcus aureus; BH48 (MSSA), Mueller–Hinton broth
Description: as §1, §2

[1] = test system: S. aureus transmembrane potential; experiment: Dissipation of bacterial membrane potential, DiSC3(5) fluorescence; assay type: cell-based, Staphylococcus aureus; conditions: 30 μM
Description: Transmembrane potential was determined as described by Breeuwer and Abee[23] Staphylococcal cells were resuspended in potassium phosphate buffer (50 mM, pH 7) containing 5 μM of the cationic fluorescent dye DiSC3(5) (Invitrogen) and fluorescence determined (excitation 650 nm, emission 680 nm).

[2] = MTT cell viability assay, HaCaT; assay type: cell-based, Human; conditions: human, HaCaT keratinocyte cells; HaCaT, MTT, 24 h
Description: (§3) Human keratinocyte (HaCaT) cells were cultured in DMEM supplemented with 10% (v/v) FBS. Primary human umbilical vein endothelial cells (HUVECs) were cultured in EGM™-2 Bulletkit (Lonza) medium. HaCaT and HUVECs were harvested using TrypLE^TM Express (Gibco). Cells were seeded in microtitre plates at 3 × 10^5 cells/mL and incubated for 24 h at 37 °C with an antimicrobial compound ([…]) or Triton X100 at 1% (v/v). After removing the medium, cells were incubated with 500 mg/L MTT (Sigma-Aldrich) for 4 h. The crystals formed were solubilized with DMSO. Absorbance was recorded at 560 nm and the CC50 was determined.

[3] = test system: Human keratinocyte (HaCaT) cells; experiment: MTT cell viability assay, HaCaT; assay type: cell-based; conditions: HaCaT cells
Description: as §3

[4] = MTT cell viability assay, HUVEC; assay type: cell-based, human; conditions: human, primary HUVECs (umbilical vein endothelial cells); HUVEC, MTT, 24 h
Description: as §3

[5] = test system: Primary human umbilical vein endothelial cells (HUVECs); experiment: MTT cell viability assay, HUVEC; assay type: cell-based; conditions: HUVECs
Description: as §3

Iron chelation = assay type: physicochemical; conditions: data not shown
staphylococcal membrane = test system: staphylococcal membrane; set-up: method as in PMID 24592914; conditions: binding to the staphylococcal membrane, single site model; cited from earlier work

## CCCCCCCCCCCCCC(=O)C1=C(O)N[C@@H](CCO)C1=O [5HE-C14-TMA, 5-hydroxyethyl-3-tetradecanoyltetramic acid]
S. aureus strain USA300
  MIC: 6.25 µM and 2 µg/mL
S. aureus strain BH1CC
  MIC: 6.25 µM and 2 µg/mL
S. aureus strain BH48
  MIC: 6.25 µM and 2 µg/mL
[1]
  Membrane depolarization (DiSC3(5) fluorescence): increase in fluorescence, indicative of membrane depolarization
[2]
  CC50 at 24 h: 181 µM and 64 µg/mL
[3]
  Selectivity index (SI, CC50/MIC): 32
[4]
  CC50 at 24 h: 19 µM and 7 µg/mL
[5]
  Selectivity index (SI, CC50/MIC): 3.5
Iron chelation
  Iron chelation: is an iron chelator
Staphylococcal membrane
  Kd: 4 µM
